Values joined by “and” are separate entries in the source; they are usually repeats but may differ in a detail not shown here. Equal entries are not always repeated. Where two headings read alike, the source gives them in different places.
Experiments:
HIV-1 protease = HIV-1 protease (Human immunodeficiency virus type 1 group M subtype B, UniProt P04585); assay: biochemical
Procedure, shortened: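 Percent inhibition came from fluorescence of FITC-tagged cleavage product, separated by filtration from uncleaved substrate captured on streptavidin-coated beads. The enzyme (10 μl of 0.1 μM) and compound acted on a biotin/FITC dual-labelled peptide for one hour at room temperature in the dark. The reaction ran in 0.1 M sodium acetate, pH 5.5, with 1.0 M NaCl and 0.05% NP-40.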

[1] = biological target: T1, single chain tethered (tandem) HIV protease (HIV-1 M:B_HXB2R, UniProt P04585); assay: Tandem HIV protease assay; format: biochemical; details: read-out: FITC KI; Table II; enzyme HIV1TANDEM
T1 construct: purified enzyme, FITC/biotin substrate assay
Procedure, shortened: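 Covalently tethered single-chain HIV protease dimer allows very low enzyme levels for Ki measurement. N-biotinylated, C-fluorescein-labelled peptide substrate incubated with enzyme and inhibitor at pH 5.5 in the dark for 96 h; streptavidin beads stop reaction, cleaved product filtered off and residual fluorescence fitted to obtain Ki.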

[2] = Table II, enzyme HIV-1, DOSE 0.123 (unit not given)
[3] = Table II, enzyme HIV-1, DOSE 0.370 (unit not given)
[4] = Table II, enzyme HIV-1, DOSE 1.100 (unit not given)
[5] = Table II, enzyme HIV-1, DOSE 3.300 (unit not given)
[6] = Table II, enzyme HIV-1, DOSE 10.000 (unit not given)
[7] = Table II, enzyme HIV-1, DOSE 30.000 (unit not given)

## CCC(C1=C(O)CC(CCc2ccccc2)(CCc2ccccc2)OC1=O)c1cccc(NS(=O)(=O)c2ccc(C#N)cn2)c1 (centres unmarked) [Example 331, N-[3-{1-(4-Hydroxy-5,6-dihydro-2-oxo-6,6-bis(2-phenylethyl)-2H-pyran-3-yl)propyl}phenyl]-5-cyanopyridine-2-sulfonamide]
HIV-1 protease; [2]
  PROTEASE % INHIB.: 99.76%
HIV-1 protease; [3]
  PROTEASE % INHIB.: 104.06%
HIV-1 protease; [4]
  PROTEASE % INHIB.: 108.51%
HIV-1 protease; [5]
  PROTEASE % INHIB.: 99.3%
HIV-1 protease; [6]
  PROTEASE % INHIB.: 103.28%
HIV-1 protease; [7]
  PROTEASE % INHIB.: 93.3%
[1]
  Ki: 0.272 nM

## CCCC1(CCC)CC(O)=C(C(c2cccc(NS(=O)(=O)c3cn(C)cn3)c2)C(C)(C)C)C(=O)O1 (single isomer, unassigned) [Example 319, N-[3(R or S)-(1-[5,6-Dihydro-6,6-dipropyl-4-hydroxy-2-oxo-2H-pyran-3-yl]-2,2-dimethylpropyl)-phenyl]-1-methyl-1H-imidazole-4-sulfonamide]
HIV-1 protease; [2]
  PROTEASE % INHIB.: 10.75%
HIV-1 protease; [3]
  PROTEASE % INHIB.: 32.65%
HIV-1 protease; [4]
  PROTEASE % INHIB.: 60.14%
HIV-1 protease; [5]
  PROTEASE % INHIB.: 75.86%
HIV-1 protease; [6]
  PROTEASE % INHIB.: 93.46%
HIV-1 protease; [7]
  PROTEASE % INHIB.: 74.48%
[1]
  Ki: 29.5 nM

## CCC[C@]1(CCc2ccccc2)CC(O)=C([C@@H](CC)c2cccc(NS(=O)(=O)c3cn(C)cn3)c2)C(=O)O1 (single isomer, unassigned) [Example 342, N-[3-{1(S or R)-(4-Hydroxy-5,6-dihydro-2-oxo-6(S or R)-phenethyl-6-propyl-2H-pyran-3-yl)propyl}phenyl]-1-methyl-1H-imidazole-4-sulfonamide]
HIV-1 protease
  PROTEASE % INHIB.: 81.06 and 93.18 and 96.94 and 85.55 and 73.55 and 73.95
[1]
  Ki: 0.309 nM

## CCC[C@@]1(CCc2ccc(F)cc2)CC(O)=C([C@H](c2cccc(NS(=O)(=O)c3ccc(C#N)cn3)c2)C(C)(C)C)C(=O)O1 (single isomer, unassigned) [Example 347, N-[3-{1(S or R)-(4-Hydroxy-5,6-dihydro-2-oxo-6(R or S)-(2-(4-fluorophenyl)ethyl)-6-propyl-2H-pyran-3-yl)-2,2-dimethyl-propyl}phenyl]-5-cyanopyridine-2-sulfonamide]
HIV-1 protease; [2]
  PROTEASE % INHIB.: 20.99%
HIV-1 protease; [3]
  PROTEASE % INHIB.: 50.82%
HIV-1 protease; [4]
  PROTEASE % INHIB.: 71.4%
HIV-1 protease; [5]
  PROTEASE % INHIB.: 83%
HIV-1 protease; [6]
  PROTEASE % INHIB.: 90.97%
HIV-1 protease; [7]
  PROTEASE % INHIB.: 87.18%
[1]
  Ki: 13.6 nM

## CC(C)(C)C(C1=C(O)CC(CCc2ccccc2)(CCc2ccccc2)OC1=O)c1cccc(NS(=O)(=O)c2ccc(N)cn2)c1 (single isomer, unassigned) [Example 356, N-[3-{1(S or R)-(4-Hydroxy-5,6-dihydro-2-oxo-6,6-bis(2-phenyl-ethyl)-2H-pyran-3-yl)-2,2-dimethylpropyl}phenyl]-5-amino-pyridine-2-sulfonamide]
HIV-1 protease; [2]
  PROTEASE % INHIB.: 54.96%
HIV-1 protease; [3]
  PROTEASE % INHIB.: 71.75%
HIV-1 protease; [4]
  PROTEASE % INHIB.: 90.19%
HIV-1 protease; [5]
  PROTEASE % INHIB.: 92.28%
HIV-1 protease; [6]
  PROTEASE % INHIB.: 100.22%
HIV-1 protease; [7]
  PROTEASE % INHIB.: 95.16%
[1]
  Ki: 1.1 nM

## CCC[C@@]1(CCc2ccc(F)cc2)CC(O)=C([C@@H](c2cccc(NS(=O)(=O)c3ccc(C#N)cn3)c2)C(C)(C)C)C(=O)O1 (single isomer, unassigned) [Example 345, N-[3-{1(R or S)-(4-Hydroxy-5,6-dihydro-2-oxo-6(R or S)-(2-(4-fluorophenyl)ethyl)-6-propyl-2H-pyran-3-yl)-2,2-dimethyl-propyl}phenyl]-5-cyanopyridine-2-sulfonamide]
HIV-1 protease; [2]
  PROTEASE % INHIB.: 69.19%
HIV-1 protease; [3]
  PROTEASE % INHIB.: 94.37%
HIV-1 protease; [4]
  PROTEASE % INHIB.: 101.67%
HIV-1 protease; [5]
  PROTEASE % INHIB.: 99.08%
HIV-1 protease; [6]
  PROTEASE % INHIB.: 97.43%
HIV-1 protease; [7]
  PROTEASE % INHIB.: 84.56%
[1]
  Ki: 0.032 nM

## CC(C)(C)C(C1=C(O)C2CCCCCCC2OC1=O)c1cccc(NS(=O)(=O)c2ccc(C#N)cn2)c1 (centres unmarked) [Example 373, 5-Cyano-N-[3-[2,2-dimethyl-1-(4a,5,6,7,8,9,10,10a-octahydro-4-hydroxy-2-oxo-2H-cycloocta[b]pyran-3-yl)propyl]phenyl]-2-pyridinesulfonamide]
HIV-1 protease; [2]
  PROTEASE % INHIB.: 90.71%
HIV-1 protease; [3]
  PROTEASE % INHIB.: 90.35%
HIV-1 protease; [4]
  PROTEASE % INHIB.: 103.83%
HIV-1 protease; [5]
  PROTEASE % INHIB.: 88.72%
HIV-1 protease; [6]
  PROTEASE % INHIB.: 85.75%
HIV-1 protease; [7]
  PROTEASE % INHIB.: 89.53%
[1]
  Ki: 0.2 nM

## CCC[C@@]1(CCc2ccc(F)cc2)CC(O)=C([C@@H](c2cccc(NS(=O)(=O)c3ccc(N)cn3)c2)C(C)(C)C)C(=O)O1 (single isomer, unassigned) [Example 316, 5-Amino-N-[3(R or S)-(1-[6(R or S)-(2-[4-fluorophenyl]ethyl)-5,6-dihydro-4-hydroxy-2-oxo-6-propyl-2H-pyran-3-yl]-2,2-dimethyl-propyl)phenyl]-2-pyridine-sulfonamide]
HIV-1 protease; [2]
  PROTEASE % INHIB.: 75.49%
HIV-1 protease; [3]
  PROTEASE % INHIB.: 85.02%
HIV-1 protease; [4]
  PROTEASE % INHIB.: 100.32%
HIV-1 protease; [5]
  PROTEASE % INHIB.: 95.46%
HIV-1 protease; [6]
  PROTEASE % INHIB.: 99.71%
HIV-1 protease; [7]
  PROTEASE % INHIB.: 87.91%
[1]
  Ki: 0.357 nM

## CC(C)CC1(CC(C)C)CC(O)=C(C(c2cccc(NS(=O)(=O)c3ccc(C#N)cn3)c2)C(C)(C)C)C(=O)O1 (racemic) [Example 306, 5-Cyano-N-[3-(1-[5,6-dihydro-6,6-diisobutyl-4-hydroxy-2-oxo-2H-pyran-3-yl]-2,2-dimethylpropyl)-phenyl]-2-pyridinesulfonamide]
HIV-1 protease; [2]
  PROTEASE % INHIB.: 71.79%
HIV-1 protease; [3]
  PROTEASE % INHIB.: 82.71%
HIV-1 protease; [4]
  PROTEASE % INHIB.: 89.3%
HIV-1 protease; [5]
  PROTEASE % INHIB.: 97.29%
HIV-1 protease; [6]
  PROTEASE % INHIB.: 82.59%
HIV-1 protease; [7]
  PROTEASE % INHIB.: 53.43%
[1]
  Ki: 0.04 nM

## CCC[C@@]1(CCc2ccccc2)CC(O)=C([C@H](CC)c2cccc(NS(=O)(=O)c3cn(C)cn3)c2)C(=O)O1 (single isomer, unassigned) [Example 339, N-[3-{1(R or S)-(4-Hydroxy-5,6-dihydro-2-oxo-6(R or S)-phenethyl-6-propyl-2H-pyran-3-yl)propyl}phenyl]-1-methyl-1H-imidazole-4-sulfonamide]
HIV-1 protease
  PROTEASE % INHIB.: 83.49 and 100.6 and 101.42 and 104.71 and 91.38 and 72.86
[1]
  Ki: 0.12 nM

## CCCC1(CCC)CC(O)=C(C(c2cccc(NS(=O)(=O)c3ccc(C(F)(F)F)cn3)c2)C(C)(C)C)C(=O)O1 (single isomer, unassigned) [Example 286, 5-Trifluoromethyl-N-[3-(R or S)-[1-[4-hydroxy-2-oxo-6,6-di-n-propyl-5,6-dihydro-2H-pyran-3-yl]-2,2-dimethylpropyl]-phenyl]1-2-pyridinesulfonamide]
HIV-1 protease; [2]
  PROTEASE % INHIB.: 34.76%
HIV-1 protease; [3]
  PROTEASE % INHIB.: 68.74%
HIV-1 protease; [4]
  PROTEASE % INHIB.: 89.29%
HIV-1 protease; [5]
  PROTEASE % INHIB.: 93.11%
HIV-1 protease; [6]
  PROTEASE % INHIB.: 108.17%
HIV-1 protease; [7]
  PROTEASE % INHIB.: 95.31%
[1]
  Ki: 13.3 nM

## CCC[C@@]1(CCc2ccccc2)CC(O)=C([C@H](CC)c2cccc(NS(=O)(=O)c3ccc(N)cn3)c2)C(=O)O1 (single isomer, unassigned) [Example 314, 5-Amino-N-[3(R or S)-(1-[5,6-dihydro-4-hydroxy-2-oxo-6(R or S)-(2-phenylethyl)-6-propyl-2H-pyran-3-yl]propyl)phenyl]-2-pyridinesulfonamide]
HIV-1 protease; [2]
  PROTEASE % INHIB.: 82.92%
HIV-1 protease; [3]
  PROTEASE % INHIB.: 96.14%
HIV-1 protease; [4]
  PROTEASE % INHIB.: 114.86%
HIV-1 protease; [5]
  PROTEASE % INHIB.: 100.76%
HIV-1 protease; [6]
  PROTEASE % INHIB.: 88.75%
HIV-1 protease; [7]
  PROTEASE % INHIB.: 73.42%
[1]
  Ki: 0.7 nM

From patent publication US6169181A, “Compounds useful to treat retroviral infections” (Pharmacia & Upjohn Company, priority 1998, dated 2001)
